We go through eight compounds from patent publication US9499492B2, “4-(ortho)-fluorophenyl-5-fluoropyrimidin-2-yl amines containing a sulfoximine group” (BAYER PHARMA AKTIENGESELLSCHAFT, priority 2012, dated 2016).

Data set [1] deals with human carbonic anhydrase-2 (Homo sapiens (Human), UniProt P00918). Nature of the data set: Carbonic anhydrase assay, carbonic anhydrase-2 (Method 4). In kind it is biochemical. The following applies: read-out: Inhibition of Carbonic anhydrase-2 IC50. On the procedure: (§1) 4. Carbonic Anhydrase Assay
The principle of the assay is based on the hydrolysis of 4-nitrophenyl acetate by carbonic anhydrases (Pocker & Stone, Biochemistry, 1967, 6, 668), with subsequent photometric determination of the dye product 4-nitrophenolate at 400 nm by means of a 96-channel spectral photometer.
(§2) 2 μL of the test compounds, dissolved in DMSO (100-fold final concentration), in a concentration range of 0.03-10 μmol/L (final), was pipetted as quadruplicates into the wells of a 96-hole microtiter plate. Wells that contained the solvent without test compounds were used as reference values (1. Wells without carbonic anhydrase for correction of the non-enzymatic hydrolysis of the substrate, and 2. Wells with carbonic anhydrase for determining the activity of the non-inhibited enzyme).
(§3) 188 μL of assay buffer (10 mmol/L of Tris/HCl, pH 7.4, 80 mmol/L of NaCl), with or without 3 units/well of carbonic anhydrase-1 [=human carbonic anhydrase-1 (Sigma, #C4396)] in order to determine carbonic anhydrase-1 inhibition or 3 units/well of carbonic anhydrase-2 [=human carbonic anhydrase-2 (Sigma, #C6165)] for measuring carbonic anhydrase-2 inhibition, was pipetted into the wells of the microtiter plate.

Data set [2] concerns the target human carbonic anhydrase-1 (Homo sapiens (Human), UniProt P00915). The experiment in a line: Carbonic anhydrase assay, carbonic anhydrase-1 (Method 4). The format is biochemical. The following applies: read-out: Inhibition of Carbonic anhydrase-1 IC50. On the procedure: as §1, §2, §3
The test system of data set [3] is MOLM-13 human acute myeloid leukemia cells. The experiment in a line: Proliferation assay, MOLM-13 (Cell Titre-Glo, Method 3). In kind it is cell-based. The following applies: MOLM-13, 72-hour exposure, read-out: Inhibition of MOLM-13 cell proliferation IC50. On the procedure:
Non-adherent MOLM-13 human acute myeloid leukemia cells (DSMZ ACC 554) were seeded at a density of 5,000 cells/well in a 96-well multititer plate in 100 μL of growth medium supplemented 10% fetal calf serum. After 24 hours, cell viability of one plate (zero-point plate) was determined with the Cell Titre-Glo Luminescent Cell Viability Assay (Promega), while 50 μL of test compound containing medium was added to the wells of the other plates (final concentrations in the range of 0.001-10 μM and DMSO controls; the final concentration of the solvent dimethyl sulfoxide was 0.5%). Cell viability was assessed after 72-hour exposure with the Cell Titre-Glo Luminescent Cell Viability Assay (Promega).

Data set [4] is described as follows: In vivo pharmacokinetics in rats (Method 6). The following applies: male, Wistar, plasma; rat, iv dosing; read-out: t1/2: terminal half-life from in vivo rat study (converted). On the procedure: 6. In Vivo Pharmacokinetics in Rats
For in vivo pharmacokinetic experiments test compounds were administered to male Wistar rats intravenously at doses of 0.3 to 1 mg/kg formulated as solutions using either rat plasma or solubilizers such as PEG400 in well-tolerated amounts.
For pharmacokinetics after intravenous administration test compounds were given as i.v. bolus and blood samples were taken at 2 min, 8 min, 15 min, 30 min, 45 min, 1 h, 2 h, 4 h, 6 h, 8 h and 24 h after dosing. […] Blood was collected into Lithium-Heparin tubes (Monovetten®, Sarstedt) and centrifuged for 15 min at 3000 rpm. An aliquot of 100 μL from the supernatant (plasma) was taken and precipitated by addition of 400 μL icecold acetonitril and frozen at −20° C. over night. Samples were subsequently thawed and centrifuged at 3000 rpm, 4° C. for 20 minutes. Aliquots of the supernatants were taken for analytical testing using an Agilent 1200 HPLC-system with LCMS/MS detection. PK parameters were calculated by non-compartmental analysis using a PK calculation software.
PK parameters derived from concentration-time profiles after i.v.: CLplasma: Total plasma clearance of test compound (in L/kg/h); CLblood: Total blood clearance of test compound: CLplasma*Cp/Cb (in L/kg/h) with Cp/Cb being the ratio of concentrations in plasma and blood, AUCnorm: Area under the concentration-time curve from t=0 h to infinity (extrapolated) divided by the administered dose (in kg*h/L); t½: terminal half-life (in h).

Read-outs that look alike come from different tables or passages of the source.

human carbonic anhydrase-1, sequence (P00915 whole entry): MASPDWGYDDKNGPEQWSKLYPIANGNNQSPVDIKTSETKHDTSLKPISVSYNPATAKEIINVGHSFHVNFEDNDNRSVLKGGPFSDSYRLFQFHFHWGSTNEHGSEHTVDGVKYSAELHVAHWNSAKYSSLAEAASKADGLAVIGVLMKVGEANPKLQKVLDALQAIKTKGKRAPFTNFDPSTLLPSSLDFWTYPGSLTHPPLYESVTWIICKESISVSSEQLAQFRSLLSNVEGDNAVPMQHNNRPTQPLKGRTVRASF

In the case of `CS(=N)(=O)Cc1cc(Cl)cc(Nc2ncc(F)c(-c3ccc(F)cc3F)n2)c1` (racemic) [Example 15, (rac)-N-{3-chloro-5-[(S-methylsulfonimidoyl)methyl]phenyl}-4-(2,4-difluorophenyl)-5-fluoropyrimidin-2-amine], the IC50 in data set [1] and in data set [2] was more than 10 µM in each case.
As for `CS(=O)(Cc1cc(Nc2ncc(F)c(-c3ccc(F)cc3F)n2)cc(S(F)(F)(F)(F)F)c1)=NC#N` (racemic) [Example 28, (rac)-{[3-{[4-(2,4-Difluorophenyl)-5-fluoropyrimidin-2-yl]amino}-5-(pentafluoro-λ^6-sulfanyl)benzyl](methyl)oxido-λ^6-sulfanylidene}cyanamide], in data set [3] (Homo sapiens, MOLM-13, 72 h), the IC50 was determined as 0.145 µM.
Take `CS(=O)(Cc1cc(Nc2ncc(F)c(-c3ccc(F)cc3F)n2)cc(C(F)(F)F)c1)=NC#N` (single isomer, unassigned) [Example 2, {[3-{[4-(2,4-Difluorophenyl)-5-fluoropyrimidin-2-yl]amino}-5-(trifluoromethyl)benzyl](methyl)oxido-λ^6-sulfanylidene}cyanamide]: in data set [4], the half-life is 4.3 h.
Take `CS(=O)(Cc1cc(Nc2ncc(F)c(-c3ccc(F)cc3F)n2)cc(S(F)(F)(F)(F)F)c1)=NC(N)=O` (single isomer, unassigned) [Example 33, 1-{[3-{[4-(2,4-Difluorophenyl)-5-fluoropyrimidin-2-yl]amino}-5-(pentafluoro-λ^6-sulfanyl)benzyl](methyl)oxido-λ^6-sulfanylidene}urea]: the IC50 in data set [3] amounted to 0.2 µM.
On to `CS(=O)(Cc1cc(Nc2ncc(F)c(-c3ccc(F)cc3F)n2)cc(C(F)(F)F)c1)=NC(N)=O` (racemic) [Example 7, (rac)-1-{[3-{[4-(2,4-Difluorophenyl)-5-fluoropyrimidin-2-yl]amino}-5-(trifluoromethyl)benzyl](methyl)oxido-λ^6-sulfanylidene}urea], for which the IC50 in data set [1] and in data set [2] was more than 10 µM each time.
As for `CS(=N)(=O)Cc1cc(Nc2ncc(F)c(-c3ccc(F)cc3F)n2)cc(C(F)(F)F)c1` (racemic) [Example 4, (rac)-4-(2,4-Difluorophenyl)-5-fluoro-N-{3-[(S-methylsulfonimidoyl)methyl]-5-(trifluoromethyl)phenyl}pyrimidin-2-amine], the half-life in data set [4] was 4.5 h. In addition, the IC50 in data set [1] and in data set [2] was more than 10 µM in each case.
Regarding `CS(=O)(Cc1cc(Nc2ncc(F)c(-c3ccc(F)cc3F)n2)cc(C(F)(F)F)c1)=NC#N` (racemic) [Example 1, (rac)-{[3-{[4-(2,4-Difluorophenyl)-5-fluoropyrimidin-2-yl]amino}-5-(trifluoromethyl)benzyl](methyl)oxido-λ^6-sulfanylidene}cyanamide], the IC50 in data set [1] and in data set [2] was more than 10 µM in each case.
On to `CS(=N)(=O)Cc1cc(Nc2ncc(F)c(-c3ccc(F)cc3F)n2)cc(S(F)(F)(F)(F)F)c1` (single isomer, unassigned) [Example 32, 4-(2,4-Difluorophenyl)-5-fluoro-N-{3-[(S-methylsulfonimidoyl)methyl]-5-(pentafluoro-λ^6-sulfanyl)phenyl}pyrimidin-2-amine], for which the IC50 in data set [3] worked out at 0.165 µM. The half-life in data set [4] is 15 h.
